Reference: patent US9284308B2, “Methylene linked quinolinyl modulators of RORγt” (Janssen Pharmaceutica NV, priority 2013, dated 2016)
Where a name gives a salt, the structure may show the parent alone.

Experiments:
[1] = system: IL-17 production by CD4 T cells; assay: Human Th17 assay; format: cell-based; details: IL-17 production by human CD4 T cells
Protocol: The human Th17 assay tests the effect of RORγt modulatory compounds on IL-17 production by CD4 T cells under conditions which favor Th17 differentiation. Total CD4^+ T cells were isolated from the peripheral blood mononuclear cells (PBMC) of healthy donors using a CD4^+ T cell isolation kit II, following the manufacturer's instructions (Miltenyi Biotec). […] 50 μL of compound at titrated concentrations in DMSO were added into each well at final DMSO concentration at 0.2%. Cells were incubated for 1 hour, then 50 μL of Th17 cell differentiation medium was added to each well. The final concentrations of antibodies and cytokines (R&D Systems) in differentiation medium were: 3×10^6/mL anti-CD3/CD28 beads (prepared using human T cell activation/expansion kit, Miltenyi Biotec), 10 μg/mL anti-IL4, 10 μg/mL anti-IFNγ, 10 ng/mL IL1β, 10 ng/mL IL23, 50 ng/mL IL6, 3 ng/mL TGFβ and 20 U/mL IL2. Cells were cultured at 37° C. and 5% CO2 for 3 days. Supernatants were collected and the accumulated IL-17 in culture was measured by using MULTI-SPOT® Cytokine Plate following manufacture's instruction (Meso Scale Discovery). The plate was read using Sector Imager 6000, and IL-17 concentration was extrapolated from the standard curve. The IC50s were determined by GraphPad.

[2] = target: T1, human RORγt ligand binding domain (RORγt LBD) (Homo sapiens, UniProt P51449); assay: RORγt ThermoFluor assay (ligand binding affinity from protein thermal stability)
T1 construct: His-tag (N); TurboTEV protease cleavage site (ENLYFQG) (N); made in house; host or cells: E. coli (pHIS1, modified pET vector)
T1 sequence (P51449 with tags, fused parts or gaps): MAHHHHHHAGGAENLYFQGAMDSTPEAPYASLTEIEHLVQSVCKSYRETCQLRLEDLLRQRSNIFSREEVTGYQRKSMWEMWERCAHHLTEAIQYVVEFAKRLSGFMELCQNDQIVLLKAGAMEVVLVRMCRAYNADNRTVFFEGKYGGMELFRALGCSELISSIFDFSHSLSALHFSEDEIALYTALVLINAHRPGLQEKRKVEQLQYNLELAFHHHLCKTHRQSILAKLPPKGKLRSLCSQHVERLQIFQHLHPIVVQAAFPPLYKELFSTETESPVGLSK
Protocol: This approach is applicable to a wide variety of systems, and rigorous in theoretical interpretation through quantitation of equilibrium binding constants (KD).
The shift in the melting point described as a ΔTm is proportional to the concentration and affinity of the ligand.
RORγt ThermoFluor® Assay Construct
Protein and compound solutions are dispensed into black 384-well polypropylene PCR microplates (Abgene) and overlayed with silicone oil (1 μL, Fluka, type DC 200) to prevent evaporation.
Bar-coded assay plates are robotically loaded onto a thermostatically controlled PCR-type thermal block and then heated at a typical ramp-rate of 1° C./min for all experiments. Fluorescence was measured by continuous illumination with UV light (Hamamatsu LC6) supplied via fiber optic and filtered through a band-pass filter (380-400 nm; >6 OD cutoff). Fluorescence emission of the entire 384-well plate was detected by measuring light intensity using a CCD camera (Sensys, Roper Scientific) filtered to detect 500±25 nm, resulting in simultaneous and independent readings of all 384 wells. Images were collected at each temperature, and the sum of the pixel intensity in a given area of the assay plate was recorded versus temperature. Reference wells contained RORγt without compounds, and the assay conditions were as follows: • 0.065 mg/mL RORγt • 60 μM 1,8-ANS • 100 mM Hepes, pH 7.0 • 10 mM NaCl • 2.5 mM GSH • 0.002% Tween-20
Project compounds were arranged in a pre-dosed mother plate (Greiner Bio-one) wherein compounds are serially diluted in 100% DMSO by 1:2 from a high concentration of 10 mM over 12 columns within a series (column 12 is a reference well containing DMSO, no compound). The compounds were robotically dispensed directly into assay plates (1×=[…]) using a Hummingbird capillary liquid handling instrument (Digilab). Following compound dispense, protein and dye in buffer was added to achieve the final assay volume of 3 μL, followed by 1 μL of silicone oil.

human RORγt LBD = target: T2, human RORγt LBD (Homo sapiens, UniProt P51449); assay: RORγt (LBD) reporter assay in HEK293T cells; format: cell-based; details: for inhibition at 6 µM: HEK-293T, read-out: RORγt (LBD) Reporter Assay, % inhibition @ 6 μM, 6 μM compound
T2 construct: expressed in transfected cells; host or cells: HEK293T
T2 sequence (P51449 258-518): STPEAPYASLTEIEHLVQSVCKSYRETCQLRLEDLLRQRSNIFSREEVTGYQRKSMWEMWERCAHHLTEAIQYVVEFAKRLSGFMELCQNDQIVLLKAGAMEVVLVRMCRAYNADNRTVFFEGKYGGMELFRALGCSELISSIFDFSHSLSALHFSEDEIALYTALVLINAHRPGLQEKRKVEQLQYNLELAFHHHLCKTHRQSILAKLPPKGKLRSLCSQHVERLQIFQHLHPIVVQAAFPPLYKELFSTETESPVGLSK
Text: RORγt (LBD) Reporter Assay
Cells used in the assay were co-transfected with two constructs. The first construct, pBIND-RORγt LBD, contained the wild type human RORγt LBD fused to the DNA binding domain of the GAL4 protein. The second construct, pGL4.31 (Promega Cat no. C935A), contained multiple GAL4 responsive DNA elements upstream of firefly luciferase. […] The mutant construct was called pBIND-RORγt-AF2.
The pBIND vector contains the GAL4 DNA Binding Domain (GAL4 DBD) and the renilla luciferase gene under control of the SV40 promoter. Renilla luciferase expression serves as a control for transfection efficiency and cell viability.
The reporter assay was performed by transiently transfecting HEK293T cells with 5 μg of pBIND-RORγt LBD or pBIND-RORγt LBD-AF2 and 5 μg pGL4.31 (Promega Cat no. C935A) using Fugene 6 (Invitrogen Cat no. E2691) at a 1:6 ratio of DNA:Fugene 6 in a T-75 flask in which cells were at least 80% confluent. Twenty four hours after bulk transfection, cells were plated into 96-well plates at 50,000 cells/well in phenol-red free DMEM containing 5% Lipid Reduced FCS and Pen/Strep. Six hours after plating, cells were treated with compounds for 24 hours. Media was removed and cells were lysed with 50 μL 1× Glo Lysis Buffer (Promega). Dual Glo Luciferase Reagent (50 μL/well) was then added and firefly luciferase luminescence was read on an Envision after a ten minute incubation. Finally, Stop and Glo reagent (50 μL/well) was added and renilla luciferase luminescence was read on an Envision after a ten minute incubation. […] Agonist compounds increase RORγt-driven luciferase expression, and antagonist or inverse agonist compounds decrease luciferase expression.

SMILES	IC50 ([1]; Homo sapiens, CD4+ T) [nM]	IC50 [1] [nM]	Kd [2] [nM]	IC50 (human RORγt LBD) [nM]	inhibition at 6 µM (human RORγt LBD) [%]	RORγt (LBD) Reporter Assay, % inhibition @ 6 μM (human RORγt LBD; 6 μM compound, 6 µM) [%]
CCc1nc2ccc(C(O)(c3cnnn3C)c3cnc(C)n3C)cc2c(Cl)c1Cc1ccc(C(F)(F)F)cc1 (single isomer, unassigned) [Example 25b, (4-Chloro-2-ethyl-3-(4-(trifluoromethyl)benzyl)quinolin-6-yl)(1,2-dimethyl-1H-imidazol-5-yl)(1-methyl-1H-1,2,3-triazol-5-yl)methanol]	2.1	–	–	–	–	–
COc1nc2ccc(C(N)(c3ccc(Cl)cc3)c3cncn3C)cc2c(Cl)c1Cc1ccc(-n2cccn2)cc1 (single isomer, unassigned) [Example 118c, (3-(4-(1H-Pyrazol-1-yl)benzyl)-4-chloro-2-methoxyquinolin-6-yl)(4-chlorophenyl)(1-methyl-1H-imidazol-5-yl)methanamine•TFA]	–	50	–	–	–	–
CNC(c1ccc2nc(OC)c(Cc3ccc(C(F)(F)F)cc3)c(Cl)c2c1)(c1ccc(C)nc1C)c1cnnn1C (single isomer, unassigned) [Example 121b, 1-(4-Chloro-2-methoxy-3-(4-(trifluoromethyl)benzyl)quinolin-6-yl)-1-(2,6-dimethylpyridin-3-yl)-N-methyl-1-(1-methyl-1H-1,2,3-triazol-5-yl)methanamine•TFA]	–	–	370	410	–	–
CNC(c1ccc2nc(OC)c(Cc3ccc(C(F)(F)F)cc3)c(Cl)c2c1)(c1ccc(C)nc1C)c1cnnn1C (single isomer, unassigned) [Example 121c, 1-(4-Chloro-2-methoxy-3-(4-(trifluoromethyl)benzyl)quinolin-6-yl)-1-(2,6-dimethylpyridin-3-yl)-N-methyl-1-(1-methyl-1H-1,2,3-triazol-5-yl)methanamine•TFA]	–	–	130	220	–	–
COc1nc2ccc(C(c3ccc(C)nc3C)(c3cnnn3C)N(C)C)cc2c(Cl)c1Cc1ccc(C(F)(F)F)cc1 (single isomer, unassigned) [Example 122b, 1-(4-Chloro-2-methoxy-3-(4-(trifluoromethyl)benzyl)quinolin-6-yl)-1-(2,6-dimethylpyridin-3-yl)-N,N-dimethyl-1-(1-methyl-1H-1,2,3-triazol-5-yl)methanamine•TFA]	–	–	> 83000	1400	–	–
COc1nc2ccc(C(c3ccc(C)nc3C)(c3cnnn3C)N(C)C)cc2c(Cl)c1Cc1ccc(C(F)(F)F)cc1 (single isomer, unassigned) [Example 122c, 1-(4-Chloro-2-methoxy-3-(4-(trifluoromethyl)benzyl)quinolin-6-yl)-1-(2,6-dimethylpyridin-3-yl)-N,N-dimethyl-1-(1-methyl-1H-1,2,3-triazol-5-yl)methanamine•TFA]	–	–	2.2	87	–	–
COc1nc2ccc(C(O)(c3oc(C)nc3C)c3cnnn3C)cc2c(Cl)c1Cc1ccc(C(F)(F)F)cc1 (single isomer, unassigned) [Example 156b, (4-chloro-2-methoxy-3-(4-(trifluoromethyl)benzyl)quinolin-6-yl)(2,4-dimethyloxazol-5-yl)(1-methyl-1H-1,2,3-triazol-5-yl)methanol]	–	–	75	87	98	–
COc1nc2ccc(C(O)(c3oc(C)nc3C)c3cnnn3C)cc2c(Cl)c1Cc1ccc(C(F)(F)F)cc1 (single isomer, unassigned) [Example 156c, (4-chloro-2-methoxy-3-(4-(trifluoromethyl)benzyl)quinolin-6-yl)(2,4-dimethyloxazol-5-yl)(1-methyl-1H-1,2,3-triazol-5-yl)methanol]	–	–	0.59	1.9	–	99
COc1nc2ccc(C(O)(c3ccc(C(F)(F)F)cc3)c3cccnc3)cc2c(Cl)c1Cc1ccc(-n2cccn2)cc1 (single isomer, unassigned) [Example 162b]	–	–	16000	1100	81	–
COc1nc2ccc(C(O)(c3cnc(C)n3C)c3cnc(C)n3C)cc2c(Cl)c1Cc1ccc(-n2cccn2)cc1 [Example 13, (3-(4-(1H-Pyrazol-1-yl)benzyl)-4-chloro-2-methoxyquinolin-6-yl)bis(1,2-dimethyl-1H-imidazol-5-yl)methanol]	–	100	–	–	–	–
COc1nc2ccc(C(O)(c3ccc(C)nc3C)c3cnnn3C)cc2c(Cl)c1Cc1ccc(F)cc1 (centres unmarked) [Example 48a, (4-Chloro-3-(4-fluorobenzyl)-2-methoxyquinolin-6-yl)(2,6-dimethylpyridin-3-yl)(1-methyl-1H-1,2,3-triazol-5-yl)methanol]	–	–	0.85	450	61	–
COc1nc2ccc(C(O)(c3ccc(C)nc3C)c3cnnn3C)cc2c(C#N)c1Cc1ccc(F)cc1 (centres unmarked) [Example 49a, 6-((2,6-Dimethylpyridin-3-yl)(hydroxy)(1-methyl-1H-1,2,3-triazol-5-yl)methyl)-3-(4-fluorobenzyl)-2-methoxyquinoline-4-carbonitrile]	–	–	1.7	52	84	–
COc1nc2ccc(C(O)(c3ccccn3)c3cncn3C)cc2c(Cl)c1Cc1ccc(C(F)(F)F)cc1 (centres unmarked) [Example 68, (4-Chloro-2-methoxy-3-(4-(trifluoromethyl)benzyl)quinolin-6-yl)(1-methyl-1H-imidazol-5-yl)(pyridin-2-yl)methanol•TFA]	–	–	53	65	101	–
COc1nc2ccc(C(O)(c3ccc(Cl)cc3)c3cncn3C)cc2c(Cl)c1Cc1cccc(C#N)c1 (centres unmarked) [Example 70, 3-((4-Chloro-6-((4-chlorophenyl)(hydroxy)(1-methyl-1H-imidazol-5-yl)methyl)-2-methoxyquinolin-3-yl)methyl)benzonitrile•TFA]	–	–	120	430	94	–
